In patent publication US10765114B2, “4-amino-6-(pyridyl and 2-substitutedphenyl)-picolinates and 6-amino-2-(pyridyl and 2-substitutedphenyl)-pyrimidine-4-carboxylates and their use as herbicides” (Dow AgroSciences LLC, priority 2013, dated 2020):
Read-outs that look alike come from different tables or passages of the source.

Legend:
[1] = tested on: Key Grass and Sedge Weeds as well as Grass Crops; experiment: Post-Emergent Test II (Table 6); assay type: in vivo; details: post-emergence, 336 h, 14 days after application; for pest or weed control at 70 g/ha: 70 g ai/ha; for pest or weed control at 140 g/ha: 140 g ai/ha
Method in brief: (§1)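 Visual injury ratings (0 = no injury, 100 = complete kill) taken 14 days after treatment, relative to untreated controls. Compounds, in an acetone/DMSO aqueous carrier with crop oil and surfactant, were applied by track sprayer at 187 L/ha, in a twofold dilution series from the top rate, to plants at the first to second true-leaf stage.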

[2] = tested on: Key Broadleaf Weed and Crop Species; experiment: Post-Emergent Test II (Table 5); assay type: in vivo; details: post-emergence, 336 h; for pest or weed control at 70 g/ha: application rate 70 (kg ai/ha; footnote: g ai/ha); for pest or weed control at 140 g/ha: application rate 140 (kg ai/ha; footnote: g ai/ha)
Method in brief: as §1

[3] = CYPSS, read-out: Visual Growth Reduction (%) 14 Days After Application CYPSS
[4] = DIGSA: crabgrass (Digitaria sanguinalis), read-out: Visual Growth Reduction (%) 14 Days After Application DIGSA
[5] = ECHSS, read-out: Visual Growth Reduction (%) 14 Days After Application ECHSS
[6] = ORYSS (crop), read-out: Visual Growth Reduction (%) 14 Days After Application ORYSS
[7] = SETFA: giant foxtail (Setaria faberi), read-out: Visual Growth Reduction (%) 14 Days After Application SETFA
[8] = SORVU: grain sorghum (Sorghum vulgare), read-out: Visual Growth Reduction (%) 14 Days After Application SORVU
[9] = TRZSS (crop), read-out: Visual Growth Reduction (%) 14 Days After Application TRZSS
[10] = ZEAMX: maize, corn (Zea mays), read-out: Visual Growth Reduction (%) 14 Days After Application ZEAMX
[11] = Abutilon theophrasti, ABUTH: velvetleaf (Abutilon theophrasti), read-out: Visual Growth Reduction (%) 14 Days After Application ABUTH
[12] = Amaranthus retroflexus, AMARE: redroot pigweed (Amaranthus retroflexus), read-out: Visual Growth Reduction (%) 14 Days After Application AMARE
[13] = Brassica napus, BRSSS: oilseed rape, canola (Brassica napus), read-out: Visual Growth Reduction (%) 14 Days After Application BRSSS
[14] = Chenopodium album, CHEAL: lambsquarters (Chenopodium album), read-out: Visual Growth Reduction (%) 14 Days After Application CHEAL
[15] = Euphorbia heterophylla, EPHHL: wild poinsettia (Euphorbia heterophylla), read-out: Visual Growth Reduction (%) 14 Days After Application EPHHL
[16] = Helianthus annuus, HELAN: sunflower (Helianthus annuus), read-out: Visual Growth Reduction (%) 14 Days After Application HELAN
[17] = Viola tricolor, VIOTR: wild pansy (Viola tricolor), read-out: Visual Growth Reduction (%) 14 Days After Application VIOTR

SMILES	pest or weed control at 70 g/ha [1, 3]	pest or weed control at 140 g/ha [1, 3]	pest or weed control at 70 g/ha [1, 4]	pest or weed control at 140 g/ha [1, 4]	pest or weed control at 70 g/ha [1, 5]	pest or weed control at 140 g/ha [1, 5]	pest or weed control at 70 g/ha [1, 6]	pest or weed control at 140 g/ha [1, 6]	pest or weed control at 70 g/ha [1, 7]	pest or weed control at 140 g/ha [1, 7]	pest or weed control at 70 g/ha [1, 8]	pest or weed control at 140 g/ha [1, 8]	pest or weed control at 70 g/ha [1, 9]	pest or weed control at 140 g/ha [1, 9]	pest or weed control at 70 g/ha [1, 10]	pest or weed control at 140 g/ha [1, 10]	pest or weed control at 70 g/ha [2, 11]	pest or weed control at 140 g/ha [2, 11]	pest or weed control at 70 g/ha [2, 12]	pest or weed control at 140 g/ha [2, 12]	other results
Nc1c(F)c(-c2ccc(Cl)c(Cl)c2Cl)nc(C(=O)O)c1Cl [Compound 10]	0 to 29%	0 to 29%	0 to 29%	45 to 59%	0 to 29%	0 to 29%	0 to 29%	0 to 29%	0 to 29%	0 to 29%	0 to 29%	0 to 29%	75 to 84%	85 to 94%	60 to 74%	60 to 74%	0 to 29%	0 to 29%	95 to 100%	95 to 100%	pest or weed control at 70 g/ha [2, 13]: 95 to 100%; pest or weed control at 140 g/ha [2, 13]: 95 to 100%; pest or weed control at 70 g/ha [2, 14]: 75 to 84%; pest or weed control at 140 g/ha [2, 14]: 75 to 84%; pest or weed control at 70 g/ha [2, 15]: 60 to 74%; pest or weed control at 140 g/ha [2, 15]: 75 to 84%; pest or weed control at 70 g/ha [2, 16]: 0 to 29%; pest or weed control at 140 g/ha [2, 16]: 0 to 29%; pest or weed control at 70 g/ha [2, 17]: 0 to 29%; pest or weed control at 140 g/ha [2, 17]: 0 to 29%
C=Cc1c(-c2cc(N)c(Cl)c(C(=O)O)n2)ccc(Cl)c1F [Compound 89, 4-Amino-3-chloro-6-(4-chloro-3-fluoro-2-vinylphenyl)picolinic acid]	0 to 29%	0 to 29%	30 to 44%	75 to 84%	75 to 84%	85 to 94%	0 to 29%	0 to 29%	0 to 29%	0 to 29%	0 to 29%	0 to 29%	0 to 29%	0 to 29%	0 to 29%	0 to 29%	85 to 94%	95 to 100%	95 to 100%	95 to 100%	pest or weed control at 70 g/ha [2, 13]: 95 to 100%; pest or weed control at 140 g/ha [2, 13]: 95 to 100%; pest or weed control at 70 g/ha [2, 14]: 95 to 100%; pest or weed control at 140 g/ha [2, 14]: 95 to 100%; pest or weed control at 70 g/ha [2, 15]: 30 to 44%; pest or weed control at 140 g/ha [2, 15]: 45 to 59%; pest or weed control at 70 g/ha [2, 16]: 95 to 100%; pest or weed control at 140 g/ha [2, 16]: 95 to 100%; pest or weed control at 70 g/ha [2, 17]: 45 to 59%; pest or weed control at 140 g/ha [2, 17]: 60 to 74%
C#Cc1c(-c2cc(N)c(Cl)c(C(=O)OC)n2)ccc(Cl)c1F [Compound 75, methyl 4-amino-3-chloro-6-(4-chloro-2-ethynyl-3-fluorophenyl)picolinate]	0 to 29%	0 to 29%	0 to 29%	0 to 29%	0 to 29%	0 to 29%	0 to 29%	0 to 29%	0 to 29%	0 to 29%	0 to 29%	0 to 29%	0 to 29%	0 to 29%	0 to 29%	0 to 29%	0 to 29%	0 to 29%	0 to 29%	0 to 29%	pest or weed control at 70 g/ha [2, 13]: 0 to 29%; pest or weed control at 140 g/ha [2, 13]: 0 to 29%; pest or weed control at 70 g/ha [2, 14]: 75 to 84%; pest or weed control at 140 g/ha [2, 14]: 75 to 84%; pest or weed control at 70 g/ha [2, 15]: 0 to 29%; pest or weed control at 140 g/ha [2, 15]: 0 to 29%; pest or weed control at 70 g/ha [2, 16]: 0 to 29%; pest or weed control at 140 g/ha [2, 16]: 0 to 29%; pest or weed control at 70 g/ha [2, 17]: 0 to 29%; pest or weed control at 140 g/ha [2, 17]: 0 to 29%
COC(=O)c1nc(-c2ccc(Cl)c(F)c2C(F)F)cc(N)c1Cl [Compound 53, methyl 4-amino-3-chloro-6-(4-chloro-2-(difluoromethyl)-3-fluorophenyl)picolinate]	0 to 29%	0 to 29%	0 to 29%	0 to 29%	0 to 29%	0 to 29%	0 to 29%	0 to 29%	0 to 29%	0 to 29%	0 to 29%	0 to 29%	0 to 29%	0 to 29%	0 to 29%	0 to 29%	85 to 94%	0 to 29%	95 to 100%	95 to 100%	pest or weed control at 70 g/ha [2, 13]: 45 to 59%; pest or weed control at 140 g/ha [2, 13]: 45 to 59%; pest or weed control at 70 g/ha [2, 14]: 95 to 100%; pest or weed control at 140 g/ha [2, 14]: 95 to 100%; pest or weed control at 70 g/ha [2, 15]: 0 to 29%; pest or weed control at 140 g/ha [2, 15]: 0 to 29%; pest or weed control at 70 g/ha [2, 16]: 60 to 74%; pest or weed control at 140 g/ha [2, 16]: 75 to 84%; pest or weed control at 70 g/ha [2, 17]: 0 to 29%; pest or weed control at 140 g/ha [2, 17]: 0 to 29%
